# According to PubChem BioAssay (NCI):
# “And” between values parts separate entries of the source, which are not always exact repeats. Identical values can stand only once.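 Protocol summary: plate cells (96-well), add compound at 5 concentrations, incubate 48 h, interpolate endpoints linearly. Abbreviation: GI50, concentration required for 50% inhibition of growth. TGI is the concentration that stops growth completely.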
# Key:
# Experiment in all cases: growth of human tumour cells (NCI), 48 h
# SK-MEL-28 melanoma = test system: SK-MEL-28 melanoma
# CCRF-CEM leukemia = test system: CCRF-CEM leukemia
# OVCAR-8 ovarian = test system: OVCAR-8 ovarian
# DMS 273 small cell lung = test system: DMS 273 small cell lung
# KM20L2 colon = test system: KM20L2 colon
# OVCAR-5 ovarian = test system: OVCAR-5 ovarian
# HOP-92 NSCLC = test system: HOP-92 NSCLC
# UACC-62 melanoma = test system: UACC-62 melanoma
# NCI/ADR-RES ovarian = test system: NCI/ADR-RES ovarian
# MDA-MB-435 = test system: MDA-MB-435
Structure (SMILES),TGI (SK-MEL-28 melanoma),TGI (CCRF-CEM leukemia),TGI (OVCAR-8 ovarian) [µM],TGI (DMS 273 small cell lung),TGI (KM20L2 colon) [µM],TGI (OVCAR-5 ovarian),TGI (HOP-92 NSCLC) [µM],TGI (UACC-62 melanoma),GI50 (UACC-62 melanoma) [µM],GI50 (SK-MEL-28 melanoma) [µM],GI50 (CCRF-CEM leukemia) [µM],GI50 (OVCAR-8 ovarian),GI50 (DMS 273 small cell lung) [µM],GI50 (KM20L2 colon) [µM],GI50 (OVCAR-5 ovarian) [µM],GI50 (NCI/ADR-RES ovarian) [nM],TGI (NCI/ADR-RES ovarian) [µM],GI50 (MDA-MB-435) [nM],TGI (MDA-MB-435),GI50 (HOP-92 NSCLC) [µM]
CSCCOC(=O)C(=[N+]=[N-])c1ccc([N+](=O)[O-])cc1,> 100 µM,> 100 µM,> 100,> 100 µM,> 100,> 100 µM,–,–,–,–,–,–,–,–,–,–,–,–,–,–
CC1OC(OC2C(CO)OC(O[C@H]3CC[C@@]4(C)C(=CC[C@H]5[C@@H]6C[C@@H]7O[C@]8(CC[C@@H](C)CN8)[C@@H](C)[C@@H]7[C@@]6(C)CC[C@@H]54)C3)C(O)C2O)C(O)C(O)C1O (stereo partly drawn),> 100 µM,> 100 µM,> 100,> 100 µM,> 100,> 100 µM,> 100,> 100 µM,–,–,–,–,–,–,–,–,–,–,–,–
CCOc1ccccc1NC(=O)CCc1n[nH]c(=S)o1,> 100 µM,> 100 µM,–,> 100 µM,> 100,–,> 100,> 100 µM,–,–,–,–,–,–,–,–,–,–,–,–
CC1=C[P+](Cc2ccccc2)(c2ccccc2)CC1 (stereo not drawn),> 100 µM,> 100 µM,> 100,> 100 µM,> 100,> 100 µM,–,> 100 µM,–,–,–,–,–,–,–,–,–,–,–,–
O=C(NCC(O)CNC(=O)C(F)(F)F)C(F)(F)F,–,> 100 µM,> 100,> 100 µM,> 100,> 100 µM,> 100,> 100 µM,–,–,–,–,–,–,–,–,–,–,–,–
CC(C)(C)OC(=O)NC(CO)c1cccc(OCc2ccccc2)c1 (stereo not drawn),> 100 µM,> 100 µM,> 100,> 100 µM,> 100,> 100 µM,> 100,> 100 µM,–,–,–,–,–,–,–,–,–,–,–,–
O=C1CC(O)(c2ccccc2)C(c2ccccc2)=C1c1ccccc1 (stereo not drawn),> 100 µM,> 100 µM,> 100,> 100 µM,> 100,> 100 µM,61.3,> 100 µM,–,–,–,–,–,–,–,–,–,–,–,–
COC(=O)c1ccc(Cl)cc1NC(=O)C1CCCCC1,> 100 µM,–,> 100,> 100 µM,> 100,> 100 µM,> 100,–,–,–,–,–,–,–,–,–,–,–,–,–
C[n+]1ccc(-c2c3nc(c(-c4cc[n+](C)cc4)c4ccc([n-]4)c(-c4cc[n+](C)cc4)c4nc(c(-c5cc[n+](C)cc5)c5ccc2[n-]5)C=C4)C=C3)cc1.[I-].[Zn+2],20 µM,44.5 µM,61.1,> 100 µM,> 100,> 100 µM,–,> 100 µM,27.5,5.54,14.1,23600 nM,33.7,23.1,> 100,–,–,–,–,–
Fc1cccc2c1cc1ccc3cccc4ccc2c1c34,> 100 µM,> 100 µM,> 100,> 100 µM,> 100,> 100 µM,> 100,> 100 µM,–,–,–,–,–,–,–,–,–,–,–,–
N#C/C(=C/Sc1ccccc1)C(=O)O,> 100 µM,> 100 µM,36.9,72.6 µM,91.2,74.6 µM,> 100,> 100 µM,–,–,–,–,–,–,–,–,–,–,–,–
COc1cc2c(cc1OC)C(=O)Cc1ccc(OC)c(OC)c1CN(C)CC2,> 100 µM,> 100 µM,> 100,> 100 µM,> 100,> 100 µM,98.5,> 100 µM,–,–,–,–,–,–,–,–,–,–,–,–
O=C1c2ccccc2-c2c1c1c(O)cccc1n2-c1ccccc1,> 100 µM,> 100 µM,> 100,–,–,> 100 µM,0.035,> 100 µM,> 100,18.5,45.3,> 100000 nM,–,–,> 100,> 100000,> 100,> 100000,> 100000 nM,–
O=C(NC1C2CC3CC(C2)CC1C3)c1cc(/C=C/c2ccccc2)[nH]c(=S)n1 (stereo not drawn),> 100 µM,> 100 µM,> 100,> 100 µM,> 100,> 100 µM,–,> 100 µM,–,–,–,–,–,–,–,–,–,–,–,–
COc1ccc(OC(C(=O)O)c2ccccc2)c2c1CCCC2=O (stereo not drawn),> 100 µM,> 100 µM,> 100,> 100 µM,> 100,> 100 µM,> 100,> 100 µM,–,–,–,–,–,–,–,–,–,–,–,–
CCc1ccc2c(c1)N(CCO)C1=C(C(=O)OC1)C2c1cccc(Cl)c1 (stereo not drawn),17.5 µM,32 µM,26.8,–,–,23.4 µM,27.8,18.5 µM,0.537,0.613,0.739,1320 nM,–,–,4.61,337,5.05,195,787 nM,12.7
OC1C2CCC1C1C3C=CC(C3)C21 (stereo not drawn),> 100 µM,> 100 µM,> 100,> 100 µM,> 100,> 100 µM,> 100,> 100 µM,–,–,–,–,–,–,–,–,–,–,–,–
Cc1cc2c(c3oc(C4(C)OC4C4OC4C)cc(=O)c13)C(=O)c1c(O)c(C3CC(C)(N(C)C)C(O)C(C)O3)cc(C3CC(N(C)C)C(O)C(C)O3)c1C2=O (stereo not drawn),0.00277 µM and 0.000596 µM,0.0499 µM and 0.041 µM,–,0.000406 µM and 0.00252 µM,–,0.000244 µM and 0.00111 µM,–,0.00016 µM and 0.000228 µM,–,–,0.00013,0.731 nM and 0.103 nM,–,–,–,–,–,0.285,0.256 nM and 1.29 nM,0.000258
